molecular target: MAPK14 (human) (UniProt Q16539); assay: Assessment of MAPK14 Kinase Activity
Sequence (Q16539 whole entry, looked up): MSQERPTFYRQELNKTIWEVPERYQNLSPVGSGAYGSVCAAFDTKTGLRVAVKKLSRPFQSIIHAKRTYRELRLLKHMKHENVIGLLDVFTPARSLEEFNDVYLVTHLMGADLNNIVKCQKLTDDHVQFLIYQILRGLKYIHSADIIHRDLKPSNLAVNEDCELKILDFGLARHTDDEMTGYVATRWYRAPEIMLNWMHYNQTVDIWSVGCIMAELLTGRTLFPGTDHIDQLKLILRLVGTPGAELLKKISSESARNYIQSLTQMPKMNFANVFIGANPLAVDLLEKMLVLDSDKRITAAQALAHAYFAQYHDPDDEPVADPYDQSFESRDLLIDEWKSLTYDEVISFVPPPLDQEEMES

| SMILES | IC50 |
| --- | --- |
| Cc1cc(OCc2ccccc2CNC(=O)Nc2cc(C3CC3)nn2-c2ccccc2)c(Br)c(=O)n1Cc1ccccc1 | 176 nM |
| Cc1cc(OCc2ccccc2CNC(=O)Nc2cc(C(C)(C)C)nn2-c2ccc(Cl)c(O)c2)c(Cl)c(=O)n1Cc1ccc(C(=O)CN)cc1 | 2.4 nM |
| CCc1c(OCc2ccccc2CNC(=O)Nc2cc(C(C)(C)C)nn2-c2cccc(F)c2)ncn(Cc2ccccc2)c1=O | 11 nM |
| COc1ccccc1Cn1c(C)cc(OCc2ccccc2CNC(=O)Nc2cc(C(C)CSC)nn2-c2cccc(O)c2)c(Cl)c1=O (stereo unspecified) | 20.5 nM |
| Cc1cc(OCc2ccccc2CNC(=O)Nc2cc(C(C)(C)C)nn2-c2ccc(O)c(Cl)c2)c(Cl)c(=O)n1Cc1cccc(C(O)C(N)=O)c1 (stereo unspecified) | 8.9 nM |
| COC(=O)c1ccc(Cn2c(C)cc(OCc3ccccc3CNC(=O)Nc3cc(C(C)(C)C)nn3-c3ccc(C)cc3)c(Br)c2=O)cc1 | 16.9 nM |

The remaining lines, values ahead:

| IC50 | SMILES |
| --- | --- |
| 9.55 nM | COC(=O)c1ccc(C)c(-n2c(SC)nc(OCc3ccc(F)cc3CNC(=O)Nc3cc(C(C)(C)C)nn3-c3ccc(C)cc3)cc2=O)c1 |
| 1.4 nM | Cc1ccc(C(=O)OCCN(C)C)cc1-n1c(C)cc(OCc2ccc(F)cc2CNC(=O)Nc2cc(C(C)(C)C)nn2-c2cccc(OCCO)c2)c(Cl)c1=O |
| 1.7 nM | Cc1ccc(C(=O)OCCO)cc1-n1c(C)cc(OCc2ccc(F)cc2CNC(=O)Nc2cc(C(C)(C)C)nn2-c2cccc(OCCO)c2)c(Cl)c1=O |
| 2.5 nM | Cc1ccc(C(=O)N[C@H](C)C(N)=O)cc1-n1c(C)cc(OCc2ccccc2CNC(=O)Nc2cc(C(C)(C)C)nn2-c2ccc(O)c(Cl)c2)c(Cl)c1=O |
| 3.6 nM | Cc1cc(OCc2ccccc2CNC(=O)Nc2cc(C(C)(C)C)nn2-c2ccc(O)c(Cl)c2)c(Cl)c(=O)n1Cc1ccc(C(=O)CN)cc1 |
